Consider 1 compound from patent publication US5356886A, “Antiviral phosphono-alken derivatives of purines” (Beecham Group p.l.c., priority 1990, dated 1994).

What all share (assay type): cell-based
The test system of one data set is CMV. Kind of data set: Plaque Reduction Test for Cytomegalovirus (AD-169 strain) in MRC-5 cells. The conditions noted are these: Human betaherpesvirus 5, AD169, MRC5. As for the experimental part: (§1) MRC-5 cells were grown to confluence in 24 well multi-dishes (well diameter=1.5 cm). The drained cell monolayers were each infected with approximately 50 infectious particles of cytomegalovirus (CMV; AD-169 strain) in 100 μl of phosphate-buffered saline. The virus was adsorbed for 1 hour at room temperature. After adsorption, residual inoculum was removed from each well and replaced with 1 ml of Eagle's MEM containing 10% heat inactivated foetal calf serum and 0.9% agarose (A37). Once the agarose had set, dilutions of the test compound, which had been prepared in Eagle's MEM (containing 10% heat-inactivated calf serum), were added, each well receiving 1 ml of liquid overlay. The test compound was diluted to give the following series of concentrations: 200, 60, 20, 6 . . . 0.06 μg/ml; final concentrations in the assay range, therefore, between 100 μg/ml and 0.03 μg/ml. The infected cultures were incubated at 37° C. in a humidified atmosphere containing 5% CO2 until plaques were clearly visible (about 12 days). The cultures are fixed in formol saline, the agarose overlays were carefully washed off, and then the cell monolayers were stained with carbol fuchsin. A stereo microscope was used to count plaques. The IC50 (concentration of drug which inhibits the number of plaques formed by 50% relative to the number of plaques observed in virus control monolayers) of the test compound was calculated. In addition, the monolayers were examined for evidence of drug-induced cytotoxicity; the minimum concentration at which cytotoxicity occurs was recorded.
On the technique in general: In a plaque reduction assay, fewer plaques than in the control indicate reduced infectivity or spread.

The subject of a further data set is HIV. Kind of data set: HIV Suppression test, viral RNA (nucleic acid hybridisation) in peripheral human lymphocytes. The conditions noted are these: Human immunodeficiency virus 1, Lymphocyte, 96 h; Concn. 0.1 μM; read-out: % Inhibition on Day 4 after infection, Viral RNA. As to the method: Peripheral human lymphocytes were prepared, cultivated, and harvested as above. Following the determination of the lymphocyte surface markers, unstimulated and mitogen stimulated cells were combined in a ratio of 1:2.
Under safety conditions these cells are infected with a standard preparation of HIV. The cells are sedimented by centrifugation. The supernatant was discarded and cells were resuspended in the HIV inoculum.
This inoculum is a liquid suspension of HIV-1 strain virus, pretested and adjusted to a titer that results in a synthesis of viral core protein p24 of >100 ng/ml at day four following infection of human lymphocytes according to the protocol.
3×10^8 lymphocytes were resuspended in 1 ml HIV inoculum and incubated at 37° C. for 60 minutes. Subsequently, the cells were washed two times with 50 ml of culture medium and resuspended in culture medium containing 10 units/ml of human recombinant interleukin-2 to yield a cell concentration of 2×10^6 cells/ml. 100 μof this cell suspension was added to each well of the microtiter plates containing the diluted solutions of the compounds. The microtiter plates were cultivated in an incubator with a humidified atmosphere and 5% CO2 at 37° C.
Accordingly, a fraction of lymphocytes was mock-infected with the same virus preparation that was heat inactivated (30 minutes at 56° C.) prior to infection.
On each of the days 2,3 and 4 post infection one of the microtiter plates which had been established in triplicate was prepared for determination of viral replication. Viral RNA is determined within the cells whereas the viral core protein p24 was detected in the supernatant of the lymphocyte culture.
Accordingly, 150 μl of supernatant were removed from each well and transferred to the well of a microtiter plate containing 50 μl/well of SDS (sodium dodecylsulfate, 0.08%). These plates were stored frozen. 50 μl of stop solution (1% SDS, 20 mM sodium acetate, pH 5.0, and 200 μg/ml heparin) were added to the cells remaining in each well. The plates were stored frozen.
The concentration of p24 synthesized by the HIV infected cells was determined by means of a sandwich ELISA, while the concentration of viral RNA was quantitated by nucleic acid hybridisation, using a ^32 P-labelled DNA probe for the gag/pol region of the viral genome. Absolute levels of viral antigen and RNA in drug treated samples were compared with untreated, virus-infected controls and the percentage inhibition calculated.

A short description of data set [1]: Drug-induced cytotoxicity for the MRC-5 cell monolayers in the CMV test. The conditions noted are these: human, mrc-5 cells, read-out: concentration at which cytotoxicity was noted. As to the method:
as §1, with “The IC50 (concentration of drug which inhibits the number of plaques formed by 50% relative to the number of plaques observed in virus control monolayers) of the test compound was calculated.” left out

The test system of the next data set is FIV. Briefly: Test for Feline Immunodeficiency Virus (FIV Glasgow 8) in Crandell Feline Kidney cells. Conditions: read-out: MIC (minimum concentration of drug inhibiting syncitial production). As to the method: Drug stocks were diluted to the appropriate concentration, in medium (e.g. 10 mg/ml to 200 μg/ml). 150 μl of each drug was dispersed in triplicate, across the top row of a microtitre plate (150 μl of media for virus and cell control, vc and cc). 100 μl of medium was dispersed into all other wells. The wells were serially diluted moving down the plate, removing 50 μl from each well and transferring to the next row. 50 μl was discarded from the bottom wells.
Trypsinisation was carried out from a confluent cell monolayer of Crandell Feline Kidney cells, in 10% trypsin, followed by resuspension in media at 1×10^6 per ml, ensuring that a single cell suspension is achieved. (Media: 90% 1×RPMI, 25 mM hepes buffer; 10% Foetal calf serum; 2% Glutamine; 2% penecillin/streptomycin.)
FIV Glasgow 8 virus was diluted to 4× the required virus challenge in medium (40 TCID50 /ml). The virus infected medium was mixed with an equal volume of cell suspension, 100 μl of which was aliquoted into each well of the drug plate, except cell control. 100 μl of cell suspension at 5×10^4 per ml was added to the latter. This gives a final cell concentration of 2.5×10^4 per ml, and drug range 100-0.03 μg/ml. The plates were incubated at 37° C., 5% CO2 in an air humidified incabator for 11-14 days. The cells were fixed by immersing the plates in formoli saline (10% formaldehyde; 10% 1.5M NaCl; 80% water) for 1 hour minimum. The cells were stained with 10% crystal violet for 15 minutes.
The assay was scored by looking for presence of syncitia and, virus induced cytopathic effect in the cell monolayers, under a microscope. Results are given as the minimum concentration of drug inhibiting syncitial production, minimum inhibitory concentration, MIC.

In brackets after ≈: the same amount, converted by molar mass.

In the data set on CMV, `Nc1nc2c(ncn2OCC/C=C/P(=O)(O)O)c(=O)[nH]1` [Example 1, (E)-9-(4-phosphonobut-3-enyloxy)guanine] registered an IC50 of 0.16 mg/L (≈ 0.531 µM). For the same compound, in the data set with HIV, the inhibition at 0.1 µM is 93%. In addition, the MCC in data set [1] was 10 µg/mL. For the same compound, the MIC with FIV was 0.01 mg/L (≈ 0.0332 µM).

One may read the IC50 as the midpoint of a concentration-inhibition curve. Higher therefore signals lower potency. One may read the inhibition as the share of the control response that was lost under treatment.
